Results from PMC12190736, “Development and In Vitro Characterization of [^3H]GMC-058 as Radioligand for Imaging Parkinsonian-Related Proteinopathies” (Cells, 2025).
Like-named read-outs stand apart in the source and are kept apart here.

Legend:
[1] = target: recombinant α-syn fibrils (Homo sapiens, UniProt P37840); test: Radioligand binding displacement of [^3H]-α-syn-tool on α-syn fibrils; details: 5 nM [^3H]-α-syn-tool
Experimental: Compound affinity for α-syn fibrils was measured by means of radioligand binding displacement experiments of an AbbVie tool radioligand with high affinity for α-syn fibrils ([^3H]-α-syn-tool). The aggregation of α-syn monomers into fibrils was obtained as described by Bousset et al.. In brief, monomers (5 mg/mL, prepared in AbbVie (Worcester, MA, USA) were incubated in 150 mM of KCl and 50 mM of Tris-HCl (pH 7.5) for 7 days at 37 °C, under constant shaking conditions (650 rpm, Eppendorf Thermomixer C, Eppendorf, Hamburg, Germany). After incubation, the fibrils were harvested via ultra-centrifugation (40,100× g, 30 min, 20 °C), resuspended in buffer, sonicated (40% amplitude, 10 s pulse on, 5 s pulse off) for 4.5 min at 20 °C, divided into aliquots (5.5 mg/mL), and stored at −80 °C until the day of the experiment. The characterization of the fibrils included protein content determination (BCA method) and an analysis of Proteinase K degradation pattern.
On the day of the experiment, α-syn fibrils were thawed for a few minutes at 37 °C, diluted in Dulbecco’s Phosphate Buffered Saline (PBS) without calcium and magnesium, pH = 7.4 (DPBS) plus 0.1% bovine serum albumin (BSA), and incubated (at the final fibrils concentration of 2.5 µg/mL) for 60 min, at room temperature (RT), with 5 nM [^3H]-α-syn-tool, in the absence or presence of different concentrations of non-radiolabeled compounds. Bound radioligand was separated from free radioligand via rapid filtration and washings with cold DPBS, using a Unifilter-96 GF/B filter plate (PerkinElmer, Rodgau, Germany) presoaked in 0.3% polyethylenimmine (PEI) and a Unifilter Cell Harvester (PerkinElmer, Rodgau, Germany). Plates were air-dried, and the scintillation liquid (Betaplate Scint, PerkinElmer) was added and counted using a MicroBeta2 2450 (Perkinelmer, Rodgau, Germany). Non-specific binding (NSB) was defined as the binding in the presence of 10 µM unlabeled α-syn tool. Data fitting and the constant of inhibition (Ki) calculation was performed using the software platform from Dotmatics (Boston, MA, USA).

Aβ fibrils = Aβ fibrils (Homo sapiens, UniProt P05067); test: [^3H]PiB binding displacement on AD brain homogenates; details: AD brain homogenate, 1 nM [^3H]PiB
Sequence of Aβ fibrils (P05067 672-711 limits assumed): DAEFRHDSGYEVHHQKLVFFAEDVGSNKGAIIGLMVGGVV
Experimental: (§1) Compounds’ affinity for tau and Aβ fibrils was measured by means of radioligand binding displacement experiments on AD brain homogenates, using [^3H]NFT-355 [8] (AbbVie, North Chicago, IL, USA) and [^3H]Pittsburg Compound-B (PiB; Novandi Chemistry AB, Södertälje, Sweden) to label tau and Aβ aggregates, respectively. Flash-frozen tissue from the frontal cerebral cortex of an AD (Braak stage V) brain was purchased from Analytical Biological Services Inc. (ABS; Wilmington, DE, USA), homogenized in DPBS, divided into aliquots (10 mg/mL), and stored at −80 °C until the day of the experiment.
(§2) On the day of the experiment, the brain homogenate was brought to RT, diluted in DPBS plus 0.1% BSA and incubated for 90 min, at RT, with 0.5 nM [^3H]NFT-355 or 1 nM [^3H]PiB, in the absence or presence of different concentrations of non-radiolabeled compounds. Bound radioligand was separated from free radioligand via rapid filtration and washings with cold DPBS, using a Unifilter-96 GF/B filter plate (presoaked in 0.3% PEI) and a Unifilter Cell Harvester (PerkinElmer). Plates were air-dried, and the scintillation liquid (Betaplate Scint, PerkinElmer) was added and counted using a MicroBeta2 2450. NSB was defined as the binding in the presence of 10 µM T808 [10] (AbbVie Germany) and 10 µM PiB for [^3H]NFT-355 and [^3H]PiB, respectively. Data fitting was performed using the software platform from Dotmatics (Boston, MA, USA).

tau fibrils = tau fibrils (Homo sapiens, UniProt P10636); test: [^3H]NFT-355 binding displacement on AD brain homogenates; details: AD brain homogenate, 0.5 nM [^3H]NFT-355
Sequence of tau fibrils (P10636 623-708 limits assumed): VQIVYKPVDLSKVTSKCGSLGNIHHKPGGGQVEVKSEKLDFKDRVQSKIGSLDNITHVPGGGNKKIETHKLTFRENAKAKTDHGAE
Experimental: as §1, §2

α-syn = details: cited from earlier work
[2] = system: fresh-frozen human brain sections; test: Autoradiography on fresh-frozen brain tissue sections; type: binding; details: for NSB: 5 µM GMC044; for NSB / Total Minus NSB / Total binding: gray matter of cingulate cortex, control C03; for Binding displaced by GMC-044: 5 µM GMC-044, control cingulate cortex tissue; for Binding in control tissue: cingulate cortex of healthy controls
Experimental: Selections of frozen human sections (described in Table 2 and Table 3) were used for binding autoradiography. Sections were first pre-incubated for 20 min in binding buffer [50 mM Tris-HCl (pH 7.4), 120 mM NaCl, 5 mM KCl, 2 mM CaCl2, 1 mM MgCl2, and 0.1% BSA] and then incubated with [^3H]GMC-058 (specific activity 22 Ci/mmol); [^3H]GMC-073 (specific activity 23.4 Ci/mmol); or […] in binding buffer for 180 min at RT. In the pilot autoradiography experiment (Figure A1). [^3H]GMC-058 was tested at 25 and 50 nM, while [^3H]GMC-073 and [^3H]GMC-098 were each tested at 10 and 20 nM. For all other autoradiography in fresh-frozen tissue sections, 25 nM [^3H]GMC-058 was used. To determine NSB, adjacent brain sections were incubated with [^3H]-tracer mixed with 5 μM of unlabeled GMC-044. The binding reaction was stopped with two 10 min washes in washing buffer [50 mM Tris-HCl (pH 7.4) at 4 °C] and a brief dip in cold distilled water. Slides were allowed to air-dry before being placed under storage phosphor screens (Fujifilm Plate BAS-TR2025, Fujifilm, Tokyo, Japan) in imaging cassettes for 90 h together with ART0123C and ART0123B tritium standards on glass slides (American Radiolabeled Chemicals Inc., St. Louis, MO, USA). Storage phosphor screens were scanned using an Amersham Typhoon FLA-9500 phosphor imaging scanner (Cytiva, Marlborough, MA, USA), and the resulting images were analyzed using Multi Gauge 3.2 phosphor imager software (Fujifilm, Tokyo, Japan) for ROI delimitation, density calibration, and quantification. Quantitative binding data from duplicates of the total, and NSB were plotted and analyzed using graphPad Prism v10 (GraphPad Software, Boston, MA, USA). Specific binding was determined by subtracting the non-specific signal from the total signal. The toluidine blue staining of adjacent sections was used to obtain anatomical references for white- and gray-matter ROI selection. Care was taken not to include artifact signals in the ROIs analyzed. These artifacts were identified as randomly placed punctate signals appearing in both total and NSB images, and they often coincided with small folds or tears in the tissue sections.

Aβ = details: AD; read-out: IC50 or KD Aβ; cited from earlier work
pTau = details: AD; read-out: IC50 or KD pTau; cited from earlier work

| SMILES | Ki [1] | Ki (Aβ fibrils) | Ki (tau fibrils) | other results |
| --- | --- | --- | --- | --- |
| COc1cccc(CC(=O)Nc2ccc(N3CCN(c4ccc(C#N)cn4)CC3)cc2)c1 [GMC024] | 25.3 nM | 81 nM | 68 nM |  |
| COc1ccc(/C=C/c2ccc(N3CCN(c4ccc(C#N)cn4)CC3)cc2)cn1 [GMC013_FR-1] | 25.5 nM | 63 nM | 151 nM |  |
| C[C@@H](C(=O)Nc1ccc(N2CCN(c3ccc(C#N)cn3)CC2)cc1)c1ccccc1 [GMC044] | 25.2 nM | 3440 nM | 692 nM |  |
| COc1ccc(N2CCN(c3ccc(NC(=O)C(C)(C)C)cc3)CC2)cc1 [GMC-058] | 22.5 nM | 1490 nM | 1320 nM |  |
| O=C(Nc1ccc(N2CCN(Cc3ccc(Cl)c(Cl)c3)CC2)cc1)c1cnccn1 [GMC021] | 22.2 nM | 889 nM | 2510 nM |  |
| COc1ccccc1CC(=O)Nc1ccc(N2CCN(c3ccc(F)cc3)CC2)nc1 [GMC079] | 23.9 nM | 404 nM | 2510 nM |  |
| CNc1cnc(C#C/C=C/c2nc3ccc(OCC(O)CF)cc3s2)cn1 (centres unmarked) [[^18F]SPAL-T-06] |  |  |  | IC50 (α-syn; MSA, read-out: IC50 or KD α-syn): 2.5 nM; IC50 (α-syn; brain homogenates from DLB or MSA cases, homologous competition binding studies, read-out: IC50): 2 to 3 nM |
| COc1ccc(CC(=O)Nc2ccc(N3CCN(c4ccc(C#N)cn4)CC3)cc2)cc1 [GMC025] | 29.7 nM | 141 nM | 50 nM |  |
| [3H]c1ccc(N2CCN(C(=O)Nc3ccc(-c4ccc(OC)cc4)c(C#N)c3)CC2)cc1 [[^3H]GMC-098, N-(2-cyano-4′-methoxy-[1,1′-biphenyl]-4-yl)-4-([4-3H]phenyl)piperazine-1-carboxamide] |  |  |  | NSB ([2]; 10 nM radioligand): 1878 ± 74.1 fmol/mg tissue equivalent; Total Minus NSB ([2]; 10 nM radioligand): 827 fmol/mg; Total binding ([2]; 10 nM radioligand): 2705 ± 62.2 fmol/mg tissue equivalent; NSB ([2]; 20 nM radioligand): 2336 ± 48.5 fmol/mg tissue equivalent; Total Minus NSB ([2]; 20 nM radioligand): 2810 fmol/mg; Total binding ([2]; 20 nM radioligand): 5146 ± 386.2 fmol/mg tissue equivalent; Binding displaced by GMC-044 [2]: approximately 50%; Binding in control tissue [2]: clear binding |
| COc1ccc(-c2ccc(NC(=O)N3CCN(c4ccccn4)CC3)cc2C#N)cc1 [GMC015] | 28.3 nM | 294 nM | 761 nM |  |
| [3H]c1cccc(NC(=O)Nc2ccc(N3CCN(c4ccc(F)cc4)CC3)c(C#N)c2)c1OC [[^3H]GMC-073, 1-(3-cyano-4-(4-(4-fluorophenyl)piperazin-1-yl)phenyl)-3-(2-methoxy-[3-3H]-phenyl)urea] |  |  |  | NSB ([2]; 10 nM radioligand): 346.9 ± 14.5 fmol/mg tissue equivalent; Total Minus NSB ([2]; 10 nM radioligand): 318 fmol/mg; Total binding ([2]; 10 nM radioligand): 664.6 ± 24.3 fmol/mg tissue equivalent; NSB ([2]; 20 nM radioligand): 1022 ± 45 fmol/mg tissue equivalent; Total Minus NSB ([2]; 20 nM radioligand): 848 fmol/mg; Total binding ([2]; 20 nM radioligand): 1870 ± 100.2 fmol/mg tissue equivalent; Binding displaced by GMC-044 [2]: approximately 50%; Binding in control tissue [2]: clear binding |
| O=C1c2cn(-c3ccc(N4CC[C@@H](F)C4)nc3)nc2CN1c1cccnc1 [[^18F]ACI-12589] |  |  |  | Kd (α-syn; MSA, read-out: IC50 or KD α-syn (converted)): 28 nM; Kd (α-syn; PD and MSA tissue, read-out: KD): ~30 nM; Kd (α-syn; sporadic PD, read-out: IC50 or KD α-syn (converted)): 33.5 ± 17.4 nM; Kd (Aβ): 317 nM; Kd (pTau): 317 nM |
| COc1ccccc1CC(=O)Nc1ccc(N2CCN(c3ccc(C#N)cn3)CC2)cc1 [GMC023] | 21.2 nM | 151 nM | 44 nM |  |

Continued, in another order:

| Ki [1] | Ki (Aβ fibrils) | Ki (tau fibrils) | SMILES | other results |
| --- | --- | --- | --- | --- |
| 6.5 nM | 51 nM | 2510 nM | COc1ccc(-c2ccc(NC(=O)N3CCN(c4ccc(OC)cc4)CC3)cc2C#N)cc1 [GMC096] |  |
| 14.5 nM | 2630 nM | 2510 nM | COc1ccc(-c2ccc(NC(=O)N3CCN(c4ccc(C#N)cn4)CC3)cc2C#N)cc1 [GMC095] |  |
| 14.2 nM | 8180 nM | 86 nM | COc1ccccc1NC(=O)Nc1ccc(N2CCN(c3ccccn3)CC2)c(C#N)c1 [GMC071] |  |
| 9.7 nM | 226 nM | 805 nM | COc1ccc(-c2ccc(NC(=O)N3CCN(c4ccccc4)CC3)cc2C#N)cc1 [GMC-098] |  |
| 8 nM | 2630 nM | 248 nM | COc1ccccc1NC(=O)Nc1ccc(N2CCN(c3ccc(F)cc3)CC2)c(C#N)c1 [GMC-073] |  |
| 6.8 nM | 64 nM | 90 nM | COc1ccccc1NC(=O)Nc1ccc(N2CCN(c3ccccn3)CC2)cc1 [GMC070] |  |
| 15.2 nM | 809 nM | 26 nM | COc1ccccc1CC(=O)Nc1ccc(N2CCN(c3ccc(F)cc3)CC2)cc1C#N [GMC086] |  |
